This note sets out measurements from BindingDB's records for doi:10.1021/jm00002a012 (Merck Research Laboratories, 1995).

The target of the test is Human immunodeficiency virus type 1 protease (Human immunodeficiency virus 1, UniProt Q72874). Description: Inhibition of HIV-1 protease was determined in vitro.

The term IC50 denotes the point on the concentration scale where inhibition reaches its midpoint. A higher IC50 goes with lower potency. On to `CC(C)(C)NC(=O)[C@@H]1C[C@@H]2CCCC[C@@H]2CN1C[C@@H](O)[C@H](Cc1ccccc1)NC(=O)[C@@H](NC(=O)c1ccc2ccccc2n1)[C@H]1CCOC1` [(3S,4aS,8aS)-N-tert-butyl-2-[(2R,3S)-2-hydroxy-3-[(2S)-2-[(3R)-oxolan-3-yl]-2-(quinolin-2-ylformamido)acetamido]-4-phenylbutyl]-decahydroisoquinoline-3-carboxamide], for which the IC50 turned out to be 50 pM.
